Laboratory results reported in patent US11716994B2, “Combinations of Yersinia entomophaga and pesticides or other substances” (priority 2017, dated 2023).
Values joined by “and” are separate entries in the source; they are usually repeats but may differ in a detail not shown here. Equal values may be shown once. Read-outs that look alike come from different tables or passages of the source.

Legend:
[1] = tested on: black cutworm; assay: Leaf disk mortality assay, Y. entomophaga cells with chemical insecticides; details: for % Mort. Chem. / LT50 Chem.: black cutworm
[2] = tested on: black cutworm
Procedure: (§2) To produce cell free filtrates, cultures of Yersinia entomophaga grown in LB medium were centrifuged at 11,448 (g) for 10 minutes. The supernatant was decanted from the centrifuged pellet and filtered through a 0.22 μm filter. Assays were performed to determine concentrations of Yen-TC (toxin complex) using ELISA, and chitinase by measuring chitinase activity on specific substrates. […] This was done to estimate relative potency of the cell free filtrates. Insects were first pre-screened with a range of dilutions of cell free filtrates to select a concentration that provided moderate activity. […] Based on these initial screens, undiluted cell free filtrate was used for cabbage looper, fall armyworm, black cutworm, and Colorado potato beetle. […] In each of the Examples below, this is expressed as 1%.
Cabbage leaf disks were dipped in either acetone (controls and Y. entomophaga alone treatments) or in indoxacarb (Sigma 33969) at 0.53 mg/L in acetone. These were set to dry for 1 hr. […] After the cabbage disks had dried for 1 hr, a single 2nd instar black cutworm was added to each individual cabbage disk. A total of 20 insects were evaluate for each treatment. Insects were observed daily and scored as live or dead.
Cabbage leaf disks were dipped in either acetone (controls and Y. entomophaga alone treatments) or in flubendiamide (Sigma 32801) at 0.59 mg/L in acetone. These were set to dry for 1 hr. […] After the cabbage disks had dried for 1 hr, a single 2nd instar black cutworm was added to each individual cabbage disk. A total of 20 insects were evaluate for each treatment. Insects were observed daily and scored as live or dead.

[3] = tested on: fall armyworm; assay: Leaf disk mortality assay, Y. entomophaga cells with chemical insecticides; details: for mortality at 4 µg/mL: Spodoptera frugiperda, foliar
[4] = tested on: Yersinia entomophaga; assay: CFU counts after exposure of Yersinia entomophaga to insecticides; assay type: cell-based; details: 1 hour contact
Excerpt: To test combinations of Yersinia entomophaga and pesticides for their ability to produce a pesticidal effect, or an effect on plant growth or yield, we first put various insecticides in contact with Yersinia to identify insecticides that had minimal toxicity to Yersinia entomophaga. The logic was that, if Yersinia entomophaga is to function well in combination with a chemical insecticide, the chemical insecticide would ideally have low or no effect on the ability of Yersinia entomophaga to survive, grow and/or to function.
To perform this study, we selected amounts of various insecticides based on the percent of the specific insecticide in the insecticide composition obtained from a manufacturer. We also considered the application rate of the particular insecticide, as recommended by the manufacturer. […] Generally, the 1× amount was considered possibly the lowest amount of insecticide that may be considered as an effective amount for use in the combinations disclosed herein. For each insecticide, we also used a higher amount of insecticide (generally a 5× or 10× amount).
The 1× and 5×/10× amounts of each insecticide were added to tubes along with 1 ml of ethyl acetate. The tubes were mixed until the insecticides dissolved. The tubes were left open in a fume hood overnight to allow the ethyl acetate to evaporate. The insecticide remained in the tubes, as a solid coat on the interior surface of the tubes.
A growing culture of Yersinia entomophaga, grown in LB medium, was diluted and 1 ml of the diluted culture was added to each tube containing the dried insecticide. The tubes were mixed and then left on the bench top for 1 hour. Then, 100 μl from each tube was plated onto LB plates in triplicate in CFU assays. Plates were incubated at 25° C. for 48 hours and colonies were counted.

[5] = tested on: fall armyworm
Procedure: To produce cell free filtrates, cultures of Yersinia entomophaga grown in LB medium were centrifuged at 11,448 (g) for 10 minutes. The supernatant was decanted from the centrifuged pellet and filtered through a 0.22 μm filter. Assays were performed to determine concentrations of Yen-TC (toxin complex) using ELISA, and chitinase by measuring chitinase activity on specific substrates. […] This was done to estimate relative potency of the cell free filtrates. Insects were first pre-screened with a range of dilutions of cell free filtrates to select a concentration that provided moderate activity. […] Based on these initial screens, undiluted cell free filtrate was used for cabbage looper, fall armyworm, black cutworm, and Colorado potato beetle.
Cabbage leaf disks were dipped in either acetone (controls and Y. entomophaga alone treatments) or fipronil (Sigma 46451) at 12 mg/L in acetone. These were set to dry for 1 hr. […] After the cabbage disks had dried for 1 hr, a single 3rd instar fall armyworm was added to each individual cabbage disk. A total of 20 insects were evaluated for each treatment. Insects were observed daily and scored as live or dead.
Cabbage leaf disks were dipped in either acetone (controls and Y. entomophaga alone treatments) or esfenvalerate (Sigma 46277) at 56 mg/L in acetone. These were set to dry for 1 hr. […] After the cabbage disks had dried for 1 hr, a single 3rd instar fall armyworm was added to each individual cabbage disk. A total of 20 insects were evaluate for each treatment. Insects were observed daily and scored as live or dead.

[6] = tested on: cabbage looper
Procedure: as §2
Cabbage leaf disks were dipped in either acetone (controls and Y. entomophaga alone treatments) or novaluron (Sigma 32419) at 1.0 mg/L in acetone. These were set to dry for 1 hr. […] After the cabbage disks had dried for 1 hr, a single 3rd instar cabbage looper was added to each individual cabbage disk. A total of 20 insects were evaluate for each treatment. Insects were observed daily and scored as live or dead.

[7] = tested on: cabbage looper; remark: listed apart in the source
[8] = tested on: Colorado potato beetle; assay: Tomato leaf disk mortality assay, Y. entomophaga cells with chemical insecticides; details: for mortality at 1 µg/mL: Leptinotarsa decemlineata, in Solanum lycopersicum, foliar
[9] = tested on: Colorado potato beetle; details: thiacloprid 1 mg/L
Procedure: as §2
Tomato leaf disks were dipped in either acetone (controls and Y. entomophaga alone treatments) or thiacloprid (Sigma 37905) at 1 mg/L in acetone. These were set to dry for 1 hr. […] After the tomato disks had dried for 1 hr, a single 3rd instar Colorado potato beetle was added to each individual cabbage disk. A total of 20 insects were evaluate for each treatment. Insects were observed daily and scored as live or dead.

[10] = tested on: diamondback moth; assay: whole plant or invertebrate; details: thiacloprid 100 mg/L; for mortality at 100 µg/mL: Plutella xylostella, foliar, Abbott's corrected
Excerpt: (§1) These were set to dry for 1 hr.
as §1
These were set to dry for 1 hr. Cabbage disks were then dipped in either 1% Luria broth (LB) media solution (controls and thiacloprid alone treatments) or in 1% cell free filtrate from a culture Y. entomophaga isolate O24G3R (Y. entomophaga alone or in combination with thiacloprid treatments).

[11] = 3rd instar, esfenvalerate 5.6 mg/L, isolate O23ZMJ 1×10^5 cfu/mL
[12] = 3rd instar, esfenvalerate 5.6 mg/L, isolate O24G3R 1×10^5 cfu/mL
[13] = 3rd instar, esfenvalerate 5.6 mg/L, isolate O43NEW 1×10^5 cfu/mL
[14] = 3rd instar, esfenvalerate 5.6 mg/L, isolate O348UX 1×10^5 cfu/mL
[15] = 3rd instar, esfenvalerate 5.6 mg/L, isolate O24G3R 1×10^4 cfu/mL
[16] = 3rd instar, esfenvalerate 56 mg/L, isolate O43NEW 1×10^6 cfu/mL
[17] = 4th instar, esfenvalerate 56 mg/L, isolate O23ZMJ 1×10^5 cfu/mL
[18] = 4th instar, esfenvalerate 56 mg/L, isolate O24G3R 1×10^5 cfu/mL
[19] = 4th instar, esfenvalerate 56 mg/L, isolate O348UX 1×10^5 cfu/mL
[20] = fall armyworm, Esfenvalerate 56 mg/L, 5 DAT

## CC(C)[C@H](C(=O)O[C@H](C#N)c1cccc(Oc2ccccc2)c1)c1ccc(Cl)cc1 [Esfenvalerate]
[1]; [11]
  % Mortality (3DAT): 42%
  % Mortality (4DAT): 61%
  LT50 (95% confidence intervals) in days: 3.40 (3.03-3.81) days
[1]; [12]
  % Mortality (5DAT): 50%
  % Mortality (6DAT): 56%
  % Mortality (7DAT): 69%
  LT50 (95% confidence intervals) in days: 5.29 (4.75-5.87) days
[1]; [13]
  % Mortality (3DAT): 40%
  % Mortality (4DAT): 45%
  LT50 (95% confidence intervals) in days: 3.97 (3.60-4.38) days
[1]; [14]
  % Mortality (5DAT): 50%
  % Mortality (6DAT): 56%
  % Mortality (7DAT): 69%
  LT50 (95% confidence intervals): 5.29 days
[1]; Esfenvalerate 1.87 mg/L, 5 DAT (row with O24G3R)
  % Mort. Chem.: 50%
[1]; Esfenvalerate 1.87 mg/L, 5 DAT (row with O348UX)
  % Mort. Chem.: 50%
[1]; Esfenvalerate 5.6 mg/L, 4 DAT (row with O23ZMJ)
  % Mort. Chem.: 61%
[1]; Esfenvalerate 5.6 mg/L, 4 DAT (row with O43NEW)
  % Mort. Chem.: 45%
[1]; Esfenvalerate alone 1.87 mg/L
  LT50 Chem.: 5.29 days
[1]; Esfenvalerate alone 5.6 mg/L
  LT50 Chem.: 3.97 days and 3.40 days
[2]; Black cutworm, esfenvalerate 5.6 mg/L
  LT50 Chem.: 3.68 days
[2]; Black cutworm, esfenvalerate 5.6 mg/L, 6 DAT
  % Mort. Chem.: 84%
[2]; in vivo
  % Mortality (6DAT): 84%
  LT50 (95% confidence intervals): 3.68 days
[3]; [15]
  % Mortality (6DAT): 0%
  LT50 (95% confidence intervals): 20.00 days
[3]; [16]
  % Mortality (5DAT): 5%
  % Mortality (7DAT): 5%
  % Mortality (9DAT): 11%
  % Mortality (11DAT): 6%
  LT50 (95% confidence intervals): 13.6 days
[3]; [17]
  % Mortality (3DAT): 25%
  LT50 (95% confidence intervals) in days: 3.66 (3.28-4.09) days
[3]; [18]
  % Mortality (3DAT): 25%
  LT50 (95% confidence intervals) in days: 3.66 (3.28-4.09) days
[3]; [19]
  % Mortality (3DAT): 25%
  LT50 (95% confidence intervals) in days: 3.66 (3.28-4.09) days
[3]; fall armyworm, Esfenvalerate 56 mg/L, 3 DAT (row with O23ZMJ)
  % Mort. Chem.: 25%
[3]; fall armyworm, Esfenvalerate 56 mg/L, 3 DAT (row with O24G3R 1 × 10^5)
  % Mort. Chem.: 25%
[3]; fall armyworm, Esfenvalerate 56 mg/L, 3 DAT (row with O348UX)
  % Mort. Chem.: 25%
[3]; [20]
  % Mort. Chem.: 5%
[3]; fall armyworm, Esfenvalerate 56 mg/L, 6 DAT
  % Mort. Chem.: 0%
[4]; 0.8 mg insecticide
  Average CFU: 258 CFU
[4]; 5.3 mg insecticide
  Average CFU: 0 CFU
[5]; Fall armyworm, esfenvalerate 56 mg/L
  LT50 Chem.: 9.84 days
[5]; [20]
  % Mort. Chem.: 40%
[5]; in vivo
  % Mortality (5DAT): 40%
  % Mortality (7DAT): 45%
  LT50 (95% confidence intervals): 9.84 days
[6]; Cabbage Looper, esfenvalerate 0.56 mg/L
  LT50 Chem.: 5.23 days
[6]; Cabbage Looper, esfenvalerate 0.56 mg/L, 5 DAT
  % Mort. Chem.: 40%
[6]; in vivo
  % Mortality (5DAT): 40%
  % Mortality (6DAT): 70%
  % Mortality (8DAT): 83%
  LT50 (95% confidence intervals) in days: 5.23 (4.69-5.79) days
[7]; cabbage looper, Esfenvalerate 0.56 mg/L, 7 DAT
  % Mort. Chem.: 37%
[7]; cabbage looper, Esfenvalerate alone 0.56 mg/L
  LT50 Chem.: 5.63 days
[7]; in vivo
  % Mortality (2DAT): 5%
  LT50 (95% confidence intervals) in days: 5.63 (5.19-6.11) days

## N#Cc1nn(-c2c(Cl)cc(C(F)(F)F)cc2Cl)c(N)c1[S+]([O-])C(F)(F)F (centres unmarked) [Fipronil]
[3]; 3rd instar, fipronil 4 mg/L, isolate O24G3R 1×10^5 cfu/mL
  LT50 (95% confidence intervals) in days: 6.71 (6.15-7.32) days
[3]; 3rd instar, fipronil 4 mg/L, isolate O24KEK 1×10^5 cfu/mL
  LT50 (95% confidence intervals) in days: 6.71 (6.15-7.31) days
[3]; 3rd instar, fipronil 4 mg/L, isolate O43NEW 1×10^5 cfu/mL
  LT50 (95% confidence intervals): 8.86 days
[3]; 3rd instar, fipronil 4 mg/L, isolate O333A4 1×10^5 cfu/mL
  LT50 (95% confidence intervals) in days: 6.71 (6.15-7.31) days
[3]; 96 h, read-out: % Mortality (4DAT), 3rd instar, fipronil 4 mg/L, isolate O24G3R 1×10^5 cfu/mL
  mortality at 4 µg/mL: 5%
[3]; 96 h, read-out: % Mortality (4DAT), 3rd instar, fipronil 4 mg/L, isolate O24KEK 1×10^5 cfu/mL
  mortality at 4 µg/mL: 5%
[3]; 96 h, read-out: % Mortality (4DAT), 3rd instar, fipronil 4 mg/L, isolate O333A4 1×10^5 cfu/mL
  mortality at 4 µg/mL: 5%
[3]; 120 h, read-out: % Mortality (5DAT), 3rd instar, fipronil 4 mg/L, isolate O24G3R 1×10^5 cfu/mL
  mortality at 4 µg/mL: 21%
[3]; 120 h, read-out: % Mortality (5DAT), 3rd instar, fipronil 4 mg/L, isolate O24KEK 1×10^5 cfu/mL
  mortality at 4 µg/mL: 21%
[3]; 120 h, read-out: % Mortality (5DAT), 3rd instar, fipronil 4 mg/L, isolate O43NEW 1×10^5 cfu/mL
  mortality at 4 µg/mL: 5%
[3]; 120 h, read-out: % Mortality (5DAT), 3rd instar, fipronil 4 mg/L, isolate O333A4 1×10^5 cfu/mL
  mortality at 4 µg/mL: 21%
[3]; 144 h, read-out: % Mortality (6DAT), 3rd instar, fipronil 4 mg/L, isolate O24KEK 1×10^5 cfu/mL
  mortality at 4 µg/mL: 39%
[3]; 144 h, read-out: % Mortality (6DAT), 3rd instar, fipronil 4 mg/L, isolate O43NEW 1×10^5 cfu/mL
  mortality at 4 µg/mL: 20%
[3]; 144 h, read-out: % Mortality (6DAT), 3rd instar, fipronil 4 mg/L, isolate O333A4 1×10^5 cfu/mL
  mortality at 4 µg/mL: 39%
[3]; fall armyworm, Fipronil 4 mg/L, 4 DAT (row with O24KEK)
  % Mort. Chem.: 5%
[3]; fall armyworm, Fipronil 4 mg/L, 4 DAT (row with O333A4)
  % Mort. Chem.: 5%
[3]; fall armyworm, Fipronil 4 mg/L, 5 DAT (row with O24G3R)
  % Mort. Chem.: 21%
[3]; fall armyworm, Fipronil 4 mg/L, 5 DAT (row with O43NEW)
  % Mort. Chem.: 5%
[3]; fall armyworm, Fipronil alone 4 mg/L
  LT50 Chem.: 8.86 days and 6.71 days
[5]; 3rd instar fall armyworm, fipronil 12 mg/L, O43NEW undiluted filtrate, alone or combined
  LT50 (95% confidence intervals) in days: 51.74 (34.99-79.58) days
[5]; Fall armyworm, fipronil 12 mg/L
  LT50 Chem.: 51.74 days
[5]; Fall armyworm, fipronil 12 mg/L, 8 DAT
  % Mort. Chem.: 0%

## N#C/N=C1\SCCN1Cc1ccc(Cl)nc1 [Thiacloprid]
[8]; 2nd instar larva, thiacloprid 1 mg/L, isolate O43NEW 1×10^6 cfu/mL
  LT50 (95% confidence intervals) in days: 6.99 (6.44-7.58) days
[8]; Colorado potato beetle, Thiacloprid 1 mg/L, 5 DAT
  % Mort. Chem.: 26%
[8]; Colorado potato beetle, Thiacloprid alone 1 mg/L
  LT50 Chem.: 6.99 days
[8]; 96 h, read-out: % Mortality (4DAT)
  mortality at 1 µg/mL: 26%
[8]; 120 h, read-out: % Mortality (5DAT)
  mortality at 1 µg/mL: 26%
[9]; 3rd instar Colorado potato beetle, O43NEW undiluted filtrate, alone or combined
  LT50 (95% confidence intervals): 12.71 days
[9]; Colorado potato beetle
  LT50 Chem.: 12.71 days
[9]; Colorado potato beetle, 6 DAT
  % Mort. Chem.: 13%
[10]; 2nd instar diamondback moth, O24G3R filtrate 1%, alone or combined
  LT50 (95% confidence intervals): 12.58 days
[10]; Diamondback moth
  LT50 Chem.: 12.58 days
[10]; Diamondback moth, 7 DAT
  % Mort. Chem.: 17%
[10]; 96 h, read-out: % Mortality (4DAT), 2nd instar diamondback moth, O24G3R filtrate 1%, alone or combined, 4 DAT
  mortality at 100 µg/mL: 5%
[10]; 120 h, read-out: % Mortality (5DAT), 2nd instar diamondback moth, O24G3R filtrate 1%, alone or combined, 5 DAT
  mortality at 100 µg/mL: 10%
[10]; 144 h, read-out: % Mortality (6DAT), 2nd instar diamondback moth, O24G3R filtrate 1%, alone or combined, 6 DAT
  mortality at 100 µg/mL: 10%
[10]; 168 h, read-out: % Mortality (7DAT), 2nd instar diamondback moth, O24G3R filtrate 1%, alone or combined, 7 DAT
  mortality at 100 µg/mL: 17%
[10]; 288 h, read-out: % Mortality (12DAT), 2nd instar diamondback moth, O24G3R filtrate 1%, alone or combined, 12 DAT
  mortality at 100 µg/mL: 27%
[10]; 312 h, read-out: % Mortality (13DAT), 2nd instar diamondback moth, O24G3R filtrate 1%, alone or combined, 13 DAT
  mortality at 100 µg/mL: 33%
